Experimental data as given in the NIST ThermoML archive (doi:10.1021/je100081v).
± gives the expanded uncertainty stated by the source.

Settings: Liquid

Row | vapor or sublimation pressure (469.15 K) | vapor or sublimation pressure (509.95 K) | Compound
1 | 101.32 ± 0.19 kPa |  | OCCO [1,2-ethanediol]
2 |  | 101.32 ± 0.2 kPa | O=CN1CCOCC1 [N-formylmorpholine]
